Measurements: patent US6610675B1 (priority 1980, dated 2003)
One block for each molecule: values may come before it.

Experiments:
[1] = tested on: granulation tissue formation caused by implantation of cotton pellets; assay: Granuloma formation test (local cotton pellet granuloma assay); format: in vivo, rat
Method: The test compound was dissolved in acetone and aliquots of varying concentrations were injected into cotton pellets. The pellets were dried and then one pellet was implanted beneath the skin of each test rat. Six days later, the animals were sacrificed and the granulation tissue (granuloma) which formed in and around the implanted pellet was removed, dried and weighed. In addition, the thymi and adrenals were removed and weighed.

thymus weight in rats = assay: Thymus inhibition testing (subcutaneous administration); format: in vivo, rat
Method: Several further studies were undertaken to determine the effects of selected compounds of the invention on thymi weights in rats when the drugs were systemically administered. In each of these studies, male Sprague-Dawley rats were used. […] On the fifth day (48 hours following the last treatment), the animals were sacrificed and the thymi weights were recorded. […] It is evident that the higher the inhibition of thymus activity at a given dose, the more toxic the compound is.

[2] = Table IX, 3 mg/kg/day s.c., three days
[3] = Table IX, 10 mg/kg/day s.c., three days
[4] = Table IX, 30 mg/kg/day s.c., three days
[5] = Table IX, 100 mg/kg/day s.c., three days
[6] = rat, in vivo, sc, 0.003 mg/kg/day
[7] = rat, in vivo, sc, 0.01 mg/kg/day
[8] = rat, in vivo, sc, 0.03 mg/kg/day
[9] = rat, in vivo, sc, 0.1 mg/kg/day
[10] = rat, in vivo, sc, 0.3 mg/kg/day

SMILES: CCOC(=O)O[C@]1(C(=O)OCCl)[C@H](C)C[C@H]2[C@@H]3CCC4=CC(=O)C=C[C@]4(C)[C@@]3(F)C(=O)C[C@@]21C [chloromethyl 17α-ethoxycarbonyloxy-9α-fluoro-16α-methylandrosta-1,4-dien-3,11-dione-17β-carboxylate]
Body wt. gain ([1]; Table V-b, 1 μg/pellet): 23.7 ± 1.5 g | Dry granulation Tissue ([1]; Table V-b, 1 μg/pellet): 55.3 ± 2.6 mg | Dry granulation Tissue Inhibition ([1]; Table V-b, 1 μg/pellet): 17.7% | Thymus wt. ([1]; Table V-b, 1 μg/pellet): 459 ± 41 mg | Body wt. gain ([1]; Table V-b, 3 μg/pellet): 25.6 ± 1.2 g | Dry granulation Tissue ([1]; Table V-b, 3 μg/pellet): 51.6 ± 5.9 mg | Dry granulation Tissue Inhibition ([1]; Table V-b, 3 μg/pellet): 23.2% | Thymus wt. ([1]; Table V-b, 3 μg/pellet): 467 ± 21 mg | Body wt. gain ([1]; Table V-b, 10 μg/pellet): 26.5 ± 2.5 g | Dry granulation Tissue ([1]; Table V-b, 10 μg/pellet): 41.5 ± 4.7 mg | Dry granulation Tissue Inhibition ([1]; Table V-b, 10 μg/pellet): 38.2% | Thymus wt. ([1]; Table V-b, 10 μg/pellet): 544 ± 31 mg | Body wt. gain ([1]; Table V-b, 30 μg/pellet): 20.3 ± 0.9 g | Dry granulation Tissue ([1]; Table V-b, 30 μg/pellet): 39.9 ± 3.6 mg | Dry granulation Tissue Inhibition ([1]; Table V-b, 30 μg/pellet): 40.6% | Thymus wt. ([1]; Table V-b, 30 μg/pellet): 463 ± 24 mg

SMILES: COC(=O)O[C@]1(C(=O)OCCl)[C@H](C)C[C@H]2[C@@H]3CCC4=CC(=O)C=C[C@]4(C)[C@@]3(F)[C@@H](O)C[C@@]21C [chloromethyl 9α-fluoro-11β-hydroxy-17α-methoxycarbonyloxy-16α-methylandrosta-1,4-dien-3-one-17β-carboxylate]
ED50 ([1]; Table XII, anti-inflammatory effect in cotton pellet granuloma): 2.38 μg/pellet | Body weight gain (thymus weight in rats; [2]): 18.8 ± 1.4 g | Thymus wt. (thymus weight in rats; [2]): 426 ± 19 mg | Thymus wt. Decrease (thymus weight in rats; [2]): 0.0% | Body weight gain (thymus weight in rats; [3]): 13.8 ± 1.6 g | Thymus wt. (thymus weight in rats; [3]): 354 ± 8 mg | Thymus wt. Decrease (thymus weight in rats; [3]): 16.9% | Body weight gain (thymus weight in rats; [4]): 12.0 ± 0.8 g | Thymus wt. (thymus weight in rats; [4]): 282 ± 11 mg | Thymus wt. Decrease (thymus weight in rats; [4]): 33.8% | Body weight gain (thymus weight in rats; [5]): 9.8 ± 1.3 g | Thymus wt. (thymus weight in rats; [5]): 206 ± 15 mg | Thymus wt. Decrease (thymus weight in rats; [5]): 51.6% | Relative Potency (TED40) (thymus weight in rats; Table XII, hydrocortisone 17-butyrate = 1): 1/36 | TED40 (thymus weight in rats; Table XII, thymus inhibition effect, subcutaneously): 46.0 mg/kg

Body wt. gain ([1]; Table V-a, 1 μg/pellet): 33.0 ± 1.2 g | Thymus wt. ([1]; Table V-a, 1 μg/pellet): 478 ± 22 mg | Thymus wt. (Decrease %) ([1]; Table V-a, 1 μg/pellet): (3.4) % | Body wt. gain ([1]; Table V-a, 3 μg/pellet): 24.9 ± 1.8 g | Thymus wt. ([1]; Table V-a, 3 μg/pellet): 449 ± 21 mg | Thymus wt. (Decrease %) ([1]; Table V-a, 3 μg/pellet): (9.3) % | Body wt. gain ([1]; Table V-a, 10 μg/pellet): 25.0 ± 2.1 g | Thymus wt. ([1]; Table V-a, 10 μg/pellet): 322 ± 22 mg | Thymus wt. (Decrease %) ([1]; Table V-a, 10 μg/pellet): (34.9) % | Body wt. gain ([1]; Table V-a, 30 μg/pellet): 24.8 ± 1.1 g | Thymus wt. ([1]; Table V-a, 30 μg/pellet): 174 ± 26 mg | Thymus wt. (Decrease %) ([1]; Table V-a, 30 μg/pellet): (64.8) % | Body wt. gain ([1]; Table V-a, 100 μg/pellet): 15.9 ± 1.0 g | Thymus wt. ([1]; Table V-a, 100 μg/pellet): 84 ± 3 mg | Thymus wt. (Decrease %) ([1]; Table V-a, 100 μg/pellet): (83.0) % | Relative Potency (TED40) (thymus weight in rats; rat, in vivo): 8.6 | Relative Potency (TED50) (thymus weight in rats; rat, in vivo): 11.2 | TED40 (thymus weight in rats; rat, in vivo, sc): 0.035 mg | TED50 (thymus weight in rats; rat, in vivo, sc): 0.052 mg | Thymus wt. (thymus weight in rats; [6]): 537 ± 28 mg | Thymus wt. Inhibition (thymus weight in rats; [6]): 2.4% | Thymus wt. (thymus weight in rats; [7]): 498 ± 15 mg | Thymus wt. Inhibition (thymus weight in rats; [7]): 9.5% | Thymus wt. (thymus weight in rats; [8]): 363 ± 22 mg | Thymus wt. Inhibition (thymus weight in rats; [8]): 34.0% | Thymus wt. (thymus weight in rats; [9]): 149 ± 9 mg | Thymus wt. Inhibition (thymus weight in rats; [9]): 72.9% | Thymus wt. (thymus weight in rats; [10]): 63 ± 3 mg | Thymus wt. Inhibition (thymus weight in rats; [10]): 88.5%
SMILES: CCC(=O)O[C@]1(C(=O)CCl)[C@@H](C)C[C@H]2[C@@H]3CCC4=CC(=O)C=C[C@]4(C)[C@@]3(F)[C@@H](O)C[C@@]21C [Clobetasol 17-propionate, reference compound]
Granulation tissue Dry wt. ([1]; Table V-a, 1 μg/pellet): 42.0 ± 5.8 mg | Granulation tissue Dry wt. Inhibition ([1]; Table V-a, 1 μg/pellet): 47.6% | Granulation tissue Wet wt. ([1]; Table V-a, 1 μg/pellet): 401 ± 29 mg | Granulation tissue Wet wt. Inhibition ([1]; Table V-a, 1 μg/pellet): 23.6% | Granulation tissue Dry wt. ([1]; Table V-a, 3 μg/pellet): 43.1 ± 8.9 mg | Granulation tissue Dry wt. Inhibition ([1]; Table V-a, 3 μg/pellet): 46.2% | Granulation tissue Wet wt. ([1]; Table V-a, 3 μg/pellet): 402 ± 40 mg | Granulation tissue Wet wt. Inhibition ([1]; Table V-a, 3 μg/pellet): 23.4% | Granulation tissue Dry wt. ([1]; Table V-a, 10 μg/pellet): 37.9 ± 6.8 mg | Granulation tissue Dry wt. Inhibition ([1]; Table V-a, 10 μg/pellet): 52.7% | Granulation tissue Wet wt. ([1]; Table V-a, 10 μg/pellet): 364 ± 25 mg | Granulation tissue Wet wt. Inhibition ([1]; Table V-a, 10 μg/pellet): 30.7% | Granulation tissue Dry wt. ([1]; Table V-a, 30 μg/pellet): 25.5 ± 2.1 mg | Granulation tissue Dry wt. Inhibition ([1]; Table V-a, 30 μg/pellet): 68.2% | Granulation tissue Wet wt. ([1]; Table V-a, 30 μg/pellet): 320 ± 10 mg | Granulation tissue Wet wt. Inhibition ([1]; Table V-a, 30 μg/pellet): 39.0% | Granulation tissue Dry wt. ([1]; Table V-a, 100 μg/pellet): 23.9 ± 3.3 mg | Granulation tissue Dry wt. Inhibition ([1]; Table V-a, 100 μg/pellet): 70.2% | Granulation tissue Wet wt. ([1]; Table V-a, 100 μg/pellet): 325 ± 12 mg | Granulation tissue Wet wt. Inhibition ([1]; Table V-a, 100 μg/pellet): 38.1% | ED50 ([1]; dose causing 50% inhibition of granulation tissue weight): >3 μg/pellet | ED60 ([1]; dose causing 60% inhibition of granulation tissue weight): >10 μg/pellet | Body weight gain (thymus weight in rats; [6]): 18.3 ± 0.6 g | Body weight gain (thymus weight in rats; [7]): 15.5 ± 1.1 g | Body weight gain (thymus weight in rats; [8]): 12.3 ± 1.3 g | Body weight gain (thymus weight in rats; [9]): -0.4 ± 1.3 g | Body weight gain (thymus weight in rats; [10]): -14.3 ± 1.3 g
